Laboratory results taken from US20150259294A1, “METHOD OF PLANT GROWTH PROMOTION USING CARBOXAMIDE DERIVATIVES” (BAYER CROPSCIENCE AG, priority 2012, published 2015).

System: winter wheat variety Dekan
Test: Foliar application field trial Höfchen: green leaves and yield in winter wheat
Format: in vivo
Conditions: for Greening Effect (%): 100 EC, assessed at EC 85, 38 days after second application, untreated control 0; for Grain Yield (dt/ha): untreated control 85
Procedure: The field trial was conducted in the experimental station “Höfchen” in Germany in spring 2012. Winter wheat, variety “Dekan”, was planted on October 2011. Fertilization, herbicide- and plant growth regulator applications were carried out according to the local agricultural practice.
The trial was conducted with 4 replicates. Plot size was 12 m^2 and there were four replicates.
Compound A5 was applied as a 100 EC formulation with rates of 37 and 75 g a.i./ha twice in the growing season at BBCH-growth stages EC 33 and 55.
The effect on the green foliage was assessed on July 2012, 38 days after the second application, at growth stage EC 85, (see table 6).
The trial was harvested on August 2012.

[1] = 37 g a.i./ha twice (EC 33 and 55)
[2] = 75 g a.i./ha twice (EC 33 and 55)

CC(C)c1ccc(Cl)cc1CN(C(=O)c1c(C(F)F)nn(C)c1F)C1CC1 [Compound A5, N-(5-chloro-2-isopropylbenzyl)-N-cyclopropyl-3-(difluoromethyl)-5-fluoro-1-methyl-1H-pyrazole-4-carboxamide]
Grain Yield (% of Untreated Control) [1]: 128%
Greening Effect (%) [1]: 54%
Grain Yield (dt/ha) [1]: 109 dt/ha
Grain Yield (% of Untreated Control) [2]: 136%
Greening Effect (%) [2]: 86%
Grain Yield (dt/ha) [2]: 115 dt/ha
effect on maintenance of green leaves in winter wheat (in words) (foliar sprays): clearly has an effect on the maintenance of the green leaves shortly before harvest
